“Also recorded” adds a separate entry of the source.
Assay: pH dependent solubility of drug or wax

COc1cc(Cc2cnc(N)nc2N)cc(OC)c1OC [trimethoprim]
solubility: more soluble at acidic pH values; also recorded: the solubility of the two drugs is pH dependent
